# From patent US6967205B1, “Compounds with antibacterial and antiparasitic properties” (New Pharma Research Sweden AB, priority 1999, dated 2005)
# Where “and” joins values, the source holds several entries; their conditions need not be identical. Identical values can stand only once.
# Assays:
# Bacillus cereus = experiment: M.I.C. by broth dilution method (NCCLS 1988), gram-positive bacteria; assay type: cell-based; conditions: in vitro broth dilution
# Description: (§1) The antibacterial activity of the present compounds was investigated by in vitro evaluation of their M.I.C. (Minimum Inhibitory Concentration) values. The evaluation was conducted in complete accordance with the “Broth dilution method”, as outlined by the U.S. National Committee for Clinical Laboratory Standards “NCCLS 1988”.
# (§2) Solutions of the present compounds were prepared by dissolving 0.01 g of a test compound in either 10% KOH (aq) or a 10% KOH/DMF mixture, after which sterile, distilled H2O was added up to a total volume of 10 ml, thereby yielding a test compound concentration of 1 000 μg/ml.
# (§3) In this evaluation, the antibacterial activity of the present compounds and enrofloxacin as reference compound was tested against seven strains of gram-positive bacteria, namely Bacillus subtilus (ATCC 6633), Bacillus cereus, Streptococcus faecium, Micrococcus Luteus (ATCC 9341), Staph. aureus (ATCC 29737), Staph. epidermidis (ATCC 12228) and Staphylococcus (ATCC 6538).
# [1] = test system: Bacillus subtilus (ATCC 6633); experiment: as above; assay type: cell-based; conditions: ATCC6633, in vitro broth dilution
# Description: as §1, §2, §3
# [2] = test system: Micrococcus Luteus (ATCC 9341); experiment: as above; assay type: cell-based; conditions: ATCC9341, in vitro broth dilution, read-out: M.I.C. values Microc. Luteus
# Description: as §1, §2, §3
# [3] = test system: Staph. aureus (ATCC 29737); experiment: as above; assay type: cell-based; conditions: Staphylococcus aureus, ATCC29737, in vitro broth dilution
# Description: as §1, §2, §3
# [4] = test system: Staph. epidermidis (ATCC 12228); experiment: as above; assay type: cell-based; conditions: Staphylococcus epidermidis, ATCC12228, in vitro broth dilution
# Description: as §1, §2, §3
# [5] = test system: Staphylococcus (ATCC 6538); experiment: as above; assay type: cell-based; conditions: ATCC6538, in vitro broth dilution, read-out: M.I.C. values Staph. (ATCC 6538)
# Description: as §1, §2, §3
# Streptococcus faecium = experiment: as above; assay type: cell-based; conditions: Enterococcus faecium, in vitro broth dilution, read-out: M.I.C. values Streptoc. faecium
# Description: as §1, §2, §3
# M. gallisepticum = experiment: M.I.C. against Mycoplasma in microtitre plates (Tanner and Wu); assay type: cell-based; conditions: in vitro; for MIC: Mycoplasmoides gallisepticum
# Description: The M.I.C. values of the compounds JA 1, JA 3, JA 5, JA 12, JA 42 and JA 43 were determined in vitro against M. gallisepticum. Enrofloxacin, tylosin and oxytetracyclin were used as reference compounds. The tested compounds were all stored and applied as solutions in distilled water. The M.I.C. evaluation was performed in microtitre plates, and the methodology employed was basically that of Tanner and Wu (Avian Disease, 36:714-717 (1992)).
# [6] = test system: E. mitis, E. hagani, E. praecox, E. acervulina, E. maxima, E. necatrix, E. tenella and E. brunetti; experiment: Prophylactic anticoccidial effect, additional trials in chickens of Habbared X breed (8 Eimeria strains); assay type: in vivo; conditions: B700 100 ppm; for anticoccidial activity (in words): JA 3 200 ppm in feed from day 8, infected day 11; for increased body weight gain as compared to the Coxistac treated group / total number of oocysts during the treatment compared to Coxistac group: JA 3 200 ppm, Coxistac 100 ppm
# Description: In yet another evaluation of the prophylactic anticoccidial effect of the present compounds, additional trials on chickens of Habbared X breed were performed. The same test protocol as the one previously employed for this breed of chickens was used, albeit with the following following modifications: • i) On day 8 after hatch, the chickens received feed containing B700 (100 ppm), JA 3 (200 ppm) or Coxistac (100 ppm); • ii) On day 11 after hatch, the chickens were infected orally by oocysts containing a mixture of 8 mature sporulated strains, namely E. mitis, E. hagani, E. praecox, E. acervulina, E. maxima, E. necatrix, E. tenella and E. brunetti. The results of this evaluation were slightly unexpected.
# [7] = test system: gram-negative bacteria (E. coli, KL. Pnemonia, Bordetella bronchiseptic, Salmonella typhi, Salmonella spp., Proteus spp., Pasterulla Duck, Pasterulla Camel); experiment: M.I.C. by broth dilution method, gram-negative bacteria; assay type: cell-based; conditions: eleven gram-negative strains
# Description: as §1, §2
# In the same manner as above, the M.I.C. values of the present compounds JA 3, JA 5, JA 12, JA 42, JA 73 and enrofloxacin as reference compound were investigated also on gram-negative bacteria. The gram-negative bacteria used were E. coli (ATCC 25922), E. Coli (ATCC 8739), E. Coli (ATCC 10536), E. Coli Pathogenic, KL. Pnemonia (ATCC 10031), Bordetella bronchiseptic (ATCC 4617), Salmonella typhi, Salmonella spp., Proteus spp., Pasterulla Duck and Pasterulla Camel.
# T. evansi = experiment: Antitrypanosomal activity in vivo in white albino rats (Giemsa blood smears); conditions: individual animals
# Description: The antitrypanosomal activity of the present compounds was evaluated in vivo on 40 white albino rats. The rats were divided into 4 groups of 10 rats each. The rats were then inoculated intraperitoneally with 10^3 organisms of T. evansi (isolated from blood of naturally infected camels) in accordance with known methodology (see Kolmer, J. A., J. Infect. Dis., 17:78-95 (1915)). The progress of the infection was monitored with the aid of standard Giemsa procedure (see Cruickshank, R., Handbook of Bacteriology, E and S Livingstone Ltd., Edinborough and London, 1961), whereby peripheral blood samples from the rats were examined under microscope. The number of Trypanosoma organisms in every blood sample was calculated and classified as follows (the numbers below are given for fields examined on a microscope slide): • +++=>10 organisms • ++=5-10 organisms • +=1-4 organisms • 0=no organisms detected
# On day 1 post infection, each group of rats was subcutaneously injected with a single dose of tested compound in an amount of 50.0 mg/kg body weight. The following drugs were administered:
# Group #4: saline solution (control group)
SMILES,MIC (Bacillus cereus) [µg/mL],MIC [1] [µg/mL],MIC [2] [µg/mL],MIC [3] [µg/mL],MIC [4] [µg/mL],MIC [5] [µg/mL],MIC (Streptococcus faecium) [µg/mL],MIC (M. gallisepticum; microtitre plates) [µg/mL],antibacterial activity against gram-negative bacteria compared to that of enrofloxacin [7],other results
"CCN1CCN(c2cc3c(cc2F)c(=O)c(C(=O)O)cn3C2CC2)CC1 [Enrofloxacin, enrofloxacin, reference compound]",0.25,0.5,2,0.25,0.12,0.12,1,0.06,–,–
"O=C(O)c1cn(C2CC2)c2cc(N3CCN(C(=O)Nc4ccc([N+](=O)[O-])cc4)CC3)c(F)cc2c1=O [B700, 1-cyclopropyl-6-fluoro-7-{4-[(4-nitroanilino)carbonyl]-1-piperazinyl}-4-oxo-1,4-dihydro-3-quinolinecarboxylic acid]",–,–,–,–,–,–,–,–,–,anticoccidial activity (in words) [6]: significant anticoccidial activity; increased body weight gain as compared to the Coxistac treated group [6]: approximately 10%; total number of oocysts during the treatment compared to Coxistac group [6]: higher than for the group treated with Coxistac
"O=C(O)c1cn(C2CC2)c2cc(N3CCN(S(=O)(=O)c4ccc5ccccc5c4)CC3)c(F)cc2c1=O [JA 5, 1-cyclopropyl-6-fluoro-7-[4-(2-naphthylsulfonyl)-1-piperazinyl]-4-oxo-1,4-dihydro-3-quinolinecarboxylic acid]",0.03,0.008,0.5,0.06,0.01,0.06,0.12,0.12,roughly equal to that of enrofloxacin,–
"O=C(O)c1cn(C2CC2)c2cc(NCC3CCCO3)c(F)cc2c1=O (stereo not shown) [JA 73, 1-cyclopropyl-6-fluoro-4-oxo-7-[(tetrahydro-2-furanylmethyl)amino]-1,4-dihydro-3-quinolinecarboxylic acid]",0.06,0.12,2,0.12,0.12,0.06,0.5,–,roughly equal to that of enrofloxacin,–
"O=C(O)c1cn(C2CC2)c2cc(N3CCN(S(=O)(=O)c4ccc(Cl)s4)CC3)c(F)cc2c1=O [JA 43, 7-{4-[(5-chloro-2-thienyl)sulfonyl]-1-piperazinyl}-1-cyclopropyl-6-fluoro-4-oxo-1,4-dihydro-3-quinolinecarboxylic acid]",0.12,0.25,1,0.12,0.25,0.03,1,0.25,–,–
"O=C(O)c1cn(C2CC2)c2cc(NCc3ccncc3)c(F)cc2c1=O [JA 68, 1-cyclopropyl-6-fluoro-4-oxo-7-[(4-pyridinylmethyl)amino]-1,4-dihydro-3-quinolinecarboxylic acid]",0.06,0.12,2,0.12,0.25,0.12,1,–,–,"Number of T. evansi per examined field (T. evansi; day 1 post infection (day of dosing), single s.c. dose 50.0 mg/kg): + (+=1-4 organisms); Number of T. evansi per examined field (T. evansi; day 3 post infection, single s.c. dose 50.0 mg/kg on day 1, 50 mg/kg): ++ (++=5-10 organisms) (9×) and 0 (0=no organisms detected); Number of T. evansi per examined field (T. evansi; day 5 post infection, single s.c. dose 50.0 mg/kg on day 1, 50 mg/kg): 0 (0=no organisms detected) (8×) and ++ (++=5-10 organisms) (2×); Number of T. evansi per examined field (T. evansi; day 7 post infection, single s.c. dose 50.0 mg/kg on day 1, 50 mg/kg): +++ (+++=>10 organisms) and 0 (0=no organisms detected) (9×); Number of T. evansi per examined field (T. evansi; day 9 post infection, single s.c. dose 50.0 mg/kg on day 1, 50 mg/kg): 0 (0=no organisms detected) (9×) and dead; Number of T. evansi per examined field (T. evansi; day 11 post infection, single s.c. dose 50.0 mg/kg on day 1, 50 mg/kg): 0 (0=no organisms detected) (9×) and dead; Number of T. evansi per examined field (T. evansi; day 13 post infection, single s.c. dose 50.0 mg/kg on day 1, 50 mg/kg): 0 (0=no organisms detected) (9×) and dead"
"CC[C@H]1OC(=O)C[C@@H](O)[C@H](C)[C@@H](O[C@@H]2O[C@H](C)[C@@H](O[C@H]3C[C@@](C)(O)[C@@H](O)[C@H](C)O3)[C@H](N(C)C)[C@H]2O)[C@@H](CC=O)C[C@@H](C)C(=O)/C=C/C(C)=C/[C@@H]1CO[C@@H]1O[C@H](C)[C@@H](O)[C@@H](OC)[C@H]1OC [Tylosin, tylosin, reference compound]",–,–,–,–,–,–,–,0.06,–,–
"O=C(O)c1cn(C2CC2)c2cc(N3CCN(S(=O)(=O)c4ccc([N+](=O)[O-])cc4)CC3)c(F)cc2c1=O [JA 3, 1-cyclopropyl-6-fluoro-7-{4-[(4-nitrophenyl)sulfonyl]-1-piperazinyl}-4-oxo-1,4-dihydro-3-quinolinecarboxylic acid]",0.06,0.06,1,0.06,0.01,0.06,0.25,0.06,roughly equal to that of enrofloxacin,anticoccidial activity (in words) [6]: significant anticoccidial activity; increased body weight gain as compared to the Coxistac treated group [6]: approximately 10%; total number of oocysts during the treatment compared to Coxistac group [6]: higher than for the group treated with Coxistac
"O=C(O)c1cn(C2CC2)c2cc(N3CCN(S(=O)(=O)c4ccccc4)CC3)c(F)cc2c1=O [JA 1, 1-cyclopropyl-6-fluoro-4-oxo-7-[4-(phenylsulfonyl)-1-piperazinyl]-1,4-dihydro-3-quinolinecarboxylic acid]",0.06,0.06,0.5,0.12,0.06,0.06,0.5,0.03,–,antibacterial activity against M. gallisepticum (in words) (M. gallisepticum): high antibacterial activity
"CN(C)[C@@H]1C(=O)C(C(N)=O)=C(O)[C@@]2(O)C(=O)C3=C(O)c4c(O)cccc4[C@@](C)(O)[C@H]3[C@H](O)[C@@H]12 [Oxytetracyclin, oxytetracyclin, reference compound]",–,–,–,–,–,–,–,–,–,M.I.C. values against M. gallisepticum (M. gallisepticum; microtitre plates): 0.12
